# Key:
# ChR2-ESC-derived neurons = assay: Patch-clamp recording of excitatory postsynaptic currents in ChR2-ESC-derived neurons; type: cell-based, mouse; settings: differentiation day 28
# From the text: (§1) We first verified that ChR2-ESCs were capable of neural lineage differentiation, using a retinoic acid-based neural differentiation protocol (FIG. 8c). At differentiation day 8, 40±10% of the cells expressed the neural lineage marker nestin. By day 14, a dense network of β-3-tubulin-positive ESC-derived immature neurons could be detected, followed by expression of the mature neuronal cytoskeletal protein MAP2 and the vesicular glutamate transporter II (vGlutll).
# Neuronal differentiation was performed as previously described, with modifications. ESCs were plated on matrigel-coated dishes in embryoid body stage in complete ESC medium (see above). […]
# For acute slice electrophysiological experiments, 1 week post cell transplantation, 250 μm cortical slices were prepared in ice-cold cutting buffer (64 mM NaCl, 25 mM NaHCO3, 10 mM glucose, 120 mM sucrose, 2.5 mM KCl, 1.25 mM NaH2PO4, 0.5 mM CaCl2 and 7 mM MgCl2, equilibrated with 95% O2/5% CO2) using a vibratome (VT 1000 S; Leica). […] Images were recorded with a CCD camera (Retiga Exi, Qimaging) by Qimaging software. […] Membrane currents were measured with the patch-clamp technique in whole-cell mode using Axon Multiclamp 700B (Axon Instruments) amplifiers. […] Through a 20× objective lens, power density of the blue light was 8-12 mW/mm^2, measured by power meter (Newport). […]
# ChR2-ESCs = assay: Retinoic acid-based neural differentiation of ChR2-ESCs, nestin expression; type: cell-based, mouse; settings: differentiation day 8; retinoic acid-based neural differentiation protocol
# From the text: as §1
# Neuronal differentiation was performed as previously described, with modifications. ESCs were plated on matrigel-coated dishes in embryoid body stage in complete ESC medium (see above). 24 hours later, medium was changed to ESC medium lacking LIF and including 5 μM retinoic acid, and changed every second day for 5 days. As a second differentiation step, cells were incubated with neural expansion medium for 7 days consisting of N2 supplement, SHH (50 ng/ml), FGF-8b (100 ng/ml), bFGF (10 ng/ml) and ascorbic acid (200 μM, Sigma) in DMEM/F12 and changed every two days. Thereafter cells were cultured in N2 and ascorbic acid in DMEM/F12.
# Cells were fixed with 4% paraformaldehyde in PBS for 30 min at room temperature. Fixation was stopped by washing cells three times with 0.1M glycine/PBS. Cells were permeabilized and blocked (4% BSA/0.4% saponin/PBS) for 30 min and incubated in primary antibody solution at 4° C. overnight. […]
SMILES,block of excitatory postsynaptic currents (ChR2-ESC-derived neurons),cells expressing the neural lineage marker nestin (ChR2-ESCs)
N#Cc1cc2[nH]c(=O)c(=O)[nH]c2cc1[N+](=O)[O-] [CNQX],blocked,
NC(CCCP(=O)(O)O)C(=O)O [D-AP5],blocked,
"CC1=C(/C=C/C(C)=C/C=C/C(C)=C/C(=O)O)C(C)(C)CCC1 [RA, retinoic acid]",,40±10%

# Source: patent US10711242B2, “Apparatus and methods for controlling cellular development” (The Board of Trustees of the Leland Stanford Junior …, priority 2008, dated 2020)
